Source: patent publication US8129371B2, “Thienopyrimidine and pyrazolopyrimidine compounds and their use as mTOR kinase and PI3 kinase inhibitors” (Wyeth LLC, priority 2007, dated 2012)

How the values were obtained:
[1] = test system: prostate line LNCap; test: In vitro cell culture growth assay (MTS), LNCap; type: cell-based; conditions: Homo sapiens, LNCaP, 72 h, LNCap cells, three days after drug treatment
Outline: (§1)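 The readout was MTS dye metabolism at 490 nm, taken after 3-day drug exposure that began the day after seeding. Growth was expressed as percent of vehicle-treated wells in the same plate.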

[2] = biological target: T1, PI3K (Homo sapiens, UniProt P48736); test: Fluorescence polarization assay for PI3K; type: biochemical; conditions: PI3 Kinase γ; read-out: PI3 Kinase γ IC50
T1 construct: PI3 Kinase γ IC50; other: PI3 Kinase γ; other: PI3 Kinase γ isoform, fluorescence polarization
T1 sequence (P48736 whole entry, canonical isoform): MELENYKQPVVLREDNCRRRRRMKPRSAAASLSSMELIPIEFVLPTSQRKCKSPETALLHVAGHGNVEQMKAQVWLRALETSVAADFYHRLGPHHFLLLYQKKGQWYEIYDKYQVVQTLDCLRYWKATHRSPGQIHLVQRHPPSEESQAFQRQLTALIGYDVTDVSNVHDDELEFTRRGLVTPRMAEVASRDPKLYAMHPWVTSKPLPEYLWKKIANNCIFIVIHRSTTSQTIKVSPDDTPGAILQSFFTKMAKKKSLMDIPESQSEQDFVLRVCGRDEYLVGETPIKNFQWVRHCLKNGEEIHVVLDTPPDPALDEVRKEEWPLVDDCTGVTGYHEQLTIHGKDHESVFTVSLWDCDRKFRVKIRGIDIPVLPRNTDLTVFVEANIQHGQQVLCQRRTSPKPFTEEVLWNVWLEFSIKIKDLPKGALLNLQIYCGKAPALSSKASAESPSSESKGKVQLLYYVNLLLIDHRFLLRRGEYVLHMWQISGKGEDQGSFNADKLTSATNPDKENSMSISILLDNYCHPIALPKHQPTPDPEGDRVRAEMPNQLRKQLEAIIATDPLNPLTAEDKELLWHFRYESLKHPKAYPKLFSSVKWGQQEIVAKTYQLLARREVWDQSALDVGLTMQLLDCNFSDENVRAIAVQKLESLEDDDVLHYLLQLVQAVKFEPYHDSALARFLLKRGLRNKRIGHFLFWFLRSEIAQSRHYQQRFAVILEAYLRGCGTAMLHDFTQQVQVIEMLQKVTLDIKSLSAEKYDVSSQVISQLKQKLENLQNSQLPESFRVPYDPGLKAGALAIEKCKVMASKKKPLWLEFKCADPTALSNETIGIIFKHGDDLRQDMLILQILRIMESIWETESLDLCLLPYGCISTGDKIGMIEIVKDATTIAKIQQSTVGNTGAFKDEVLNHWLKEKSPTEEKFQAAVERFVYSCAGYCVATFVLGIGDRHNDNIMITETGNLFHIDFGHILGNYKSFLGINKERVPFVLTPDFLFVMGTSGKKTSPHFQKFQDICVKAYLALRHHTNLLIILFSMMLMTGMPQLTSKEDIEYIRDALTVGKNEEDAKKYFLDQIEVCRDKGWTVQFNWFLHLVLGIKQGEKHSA
Outline: (§2)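 PI3K was preincubated with compound (final DMSO 1%), and the reaction was started with PIP2/ATP substrate and run 30–60 min. It was stopped with a detector mix giving 10 nM red probe and 70 nM GST-GRP.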

[3] = biological target: T2, PI3K (Homo sapiens, UniProt P42336); test: Fluorescence polarization assay for PI3K; type: biochemical; conditions: PI3 Kinase α; read-out: PI3 Kinase α IC50
T2 construct: PI3 Kinase α IC50; other: PI3 Kinase α; other: PI3 Kinase α isoform, fluorescence polarization
T2 sequence (P42336 whole entry, canonical isoform): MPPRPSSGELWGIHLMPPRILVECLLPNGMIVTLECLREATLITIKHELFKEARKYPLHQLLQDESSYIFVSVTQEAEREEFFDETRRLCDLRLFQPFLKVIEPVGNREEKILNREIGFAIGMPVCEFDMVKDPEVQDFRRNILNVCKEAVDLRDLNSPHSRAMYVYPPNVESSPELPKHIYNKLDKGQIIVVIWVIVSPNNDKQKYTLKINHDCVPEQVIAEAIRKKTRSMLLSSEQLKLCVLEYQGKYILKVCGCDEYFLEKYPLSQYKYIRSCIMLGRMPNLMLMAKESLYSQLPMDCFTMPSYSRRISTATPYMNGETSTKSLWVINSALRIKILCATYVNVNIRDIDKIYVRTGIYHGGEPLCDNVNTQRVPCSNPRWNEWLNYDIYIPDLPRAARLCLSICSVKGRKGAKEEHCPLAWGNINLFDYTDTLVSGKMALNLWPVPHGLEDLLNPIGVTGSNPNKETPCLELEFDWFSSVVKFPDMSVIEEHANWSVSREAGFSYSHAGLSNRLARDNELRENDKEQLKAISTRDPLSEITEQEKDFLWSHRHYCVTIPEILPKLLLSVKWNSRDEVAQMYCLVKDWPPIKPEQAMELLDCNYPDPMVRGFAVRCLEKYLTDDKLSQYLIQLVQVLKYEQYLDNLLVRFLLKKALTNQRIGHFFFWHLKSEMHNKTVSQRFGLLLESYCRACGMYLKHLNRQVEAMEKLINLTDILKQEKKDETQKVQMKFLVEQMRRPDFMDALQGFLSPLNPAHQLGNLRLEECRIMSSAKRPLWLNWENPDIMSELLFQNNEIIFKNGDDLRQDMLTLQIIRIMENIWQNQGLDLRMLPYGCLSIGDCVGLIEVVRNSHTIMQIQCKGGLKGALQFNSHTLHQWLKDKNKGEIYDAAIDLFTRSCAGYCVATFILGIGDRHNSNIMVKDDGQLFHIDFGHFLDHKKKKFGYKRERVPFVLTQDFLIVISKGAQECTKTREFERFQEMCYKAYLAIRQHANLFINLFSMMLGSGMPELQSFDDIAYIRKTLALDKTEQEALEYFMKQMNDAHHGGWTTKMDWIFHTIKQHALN
Outline: as §2

[4] = test system: breast line MDA468; test: In vitro cell culture growth assay (MTS), MDA468; type: cell-based; conditions: Homo sapiens, 72 h, MDA468 cells, three days after drug treatment
Outline: as §1

[5] = biological target: T3, Human mTOR (FLAG-TOR) (Homo sapiens, UniProt P42345); test: Human mTOR kinase assay with purified enzyme, DELFIA format; type: biochemical
T3 construct: FLAG
Outline: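 Purified FLAG-mTOR in HEPES pH 7.4 buffer with 10 mM MnCl2 was preincubated with inhibitor and reacted 2 h at room temperature with His6-S6K substrate, then stopped with EDTA/EGTA. Phospho-T389 S6K detected by DELFIA with Eu-labelled antibody (40 ng/mL) after plate capture; inhibition computed from signal.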

CN(C)CCn1ncc2c(N3CC4CCC(C3)O4)nc(-c3ccc(NC(=O)Nc4ccc(CCO)cc4)cc3)nc21 [Example 155, 1-(4-{1-[2-(dimethylamino)ethyl]-4-(8-oxa-3-azabicyclo[3.2.1]oct-3-yl)-1H-pyrazolo[3,4-d]pyrimidin-6-yl}phenyl)-3-[4-(2-hydroxyethyl)phenyl]urea]
IC50 [1]: 1 nM
IC50 [2]: 1170 nM
IC50 [3]: 82 nM
IC50 [4]: 110 nM
IC50 [5]: 1.75 nM

CN(C)CCn1ncc2c(N3CC4CCC(C3)O4)nc(-c3ccc(NC(=O)Nc4ccccc4)cc3)nc21 [Example 156, 1-(4-{1-[2-(dimethylamino)ethyl]-4-(8-oxa-3-azabicyclo[3.2.1]oct-3-yl)-1H-pyrazolo[3,4-d]pyrimidin-6-yl}phenyl)-3-phenylurea]
IC50 [1]: 1 nM
IC50 [2]: 1530 nM
IC50 [3]: 160 nM
IC50 [4]: 68 nM
IC50 [5]: 2.65 nM

CN(C)CCn1ncc2c(N3CC4CCC(C3)O4)nc(-c3ccc(NC(=O)Nc4cccnc4)cc3)nc21 [Example 157, 1-(4-{1-[2-(dimethylamino)ethyl]-4-(8-oxa-3-azabicyclo[3.2.1]oct-3-yl)-1H-pyrazolo[3,4-d]pyrimidin-6-yl}phenyl)-3-pyridin-3-ylurea]
IC50 [1]: 50 nM
IC50 [2]: 3120 nM
IC50 [3]: 235 nM
IC50 [4]: 220 nM
IC50 [5]: 2.7 nM

CN(C)CCn1ncc2c(N3CC4CCC(C3)O4)nc(-c3ccc(NC(=O)OCCO)cc3)nc21 [Example 158, 2-hydroxyethyl (4-{1-[2-(dimethylamino)ethyl]-4-(8-oxa-3-azabicyclo[3.2.1]oct-3-yl)-1H-pyrazolo[3,4-d]pyrimidin-6-yl}phenyl)carbamate]
IC50 [1]: 680 nM
IC50 [2]: > 10000 nM
IC50 [3]: 3520 nM
IC50 [4]: 5000 nM
IC50 [5]: 27 nM

CN(C)CCn1ncc2c(N3CC4CCC(C3)O4)nc(-c3ccc(NC(=O)Nc4ccc(N5CCN(C)CC5)cc4)cc3)nc21 [Example 159, 1-(4-{1-[2-(dimethylamino)ethyl]-4-(8-oxa-3-azabicyclo[3.2.1]oct-3-yl)-1H-pyrazolo[3,4-d]pyrimidin-6-yl}phenyl)-3-[4-(4-methylpiperazin-1-yl)phenyl]urea]
IC50 [1]: 18 nM
IC50 [2]: 3820 nM
IC50 [3]: 188 nM
IC50 [4]: 90 nM
IC50 [5]: 4.85 nM

CCNC(=O)Nc1ccc(-c2nc(N3CC4CCC(C3)O4)c3cnn(CCN(C)C)c3n2)cc1 [Example 160, 1-(4-{1-[2-(dimethylamino)ethyl]-4-(8-oxa-3-azabicyclo[3.2.1]oct-3-yl)-1H-pyrazolo[3,4-d]pyrimidin-6-yl}phenyl)-3-ethylurea]
IC50 [1]: 280 nM
IC50 [2]: > 10000 nM
IC50 [3]: 3120 nM
IC50 [4]: 1800 nM
IC50 [5]: 13 nM

CN(C)CCn1ncc2c(N3CC4CCC(C3)O4)nc(-c3ccc(NC(=O)NC4CC4)cc3)nc21 [Example 161, 1-cyclopropyl-3-(4-{1-[2-(dimethylamino)ethyl]-4-(8-oxa-3-azabicyclo[3.2.1]oct-3-yl)-1H-pyrazolo[3,4-d]pyrimidin-6-yl}phenyl)urea]
IC50 [1]: 210 nM
IC50 [2]: > 10000 nM
IC50 [3]: 3600 nM
IC50 [4]: 2200 nM
IC50 [5]: 8.4 nM

CN(C)CCn1ncc2c(N3CC4CCC(C3)O4)nc(-c3ccc(NC(=O)Nc4ccncc4)cc3)nc21 [Example 162, 1-(4-{1-[2-(dimethylamino)ethyl]-4-(8-oxa-3-azabicyclo[3.2.1]oct-3-yl)-1H-pyrazolo[3,4-d]pyrimidin-6-yl}phenyl)-3-pyridin-4-ylurea]
IC50 [1]: 50 nM
IC50 [2]: 482 nM
IC50 [3]: 173 nM
IC50 [4]: 200 nM
IC50 [5]: 1.2 nM

CN(C)CCn1ncc2c(N3CC4CCC(C3)O4)nc(-c3ccc(NC(=O)Nc4ccc(CO)cc4)cc3)nc21 [Example 163, 1-(4-{1-[2-(dimethylamino)ethyl]-4-(8-oxa-3-azabicyclo[3.2.1]oct-3-yl)-1H-pyrazolo[3,4-d]pyrimidin-6-yl}phenyl)-3-[4-(hydroxymethyl)phenyl]urea]
IC50 [1]: 28 nM
IC50 [2]: 1290 nM
IC50 [3]: 43 nM
IC50 [4]: 90 nM
IC50 [5]: 0.88 nM

COC(=O)N1CCC(n2ncc3c(N4CC5CCC(C4)O5)nc(-c4ccc(NC(=O)Nc5ccc(CO)cc5)cc4)nc32)CC1 [Example 164, methyl 4-{6-[4-({[4-(hydroxymethyl)phenyl]carbamoyl}amino)phenyl]-4-(8-oxa-3-azabicyclo[3.2.1]oct-3-yl)-1H-pyrazolo[3,4-d]pyrimidin-1-yl}piperidine-1-carboxylate]
IC50 [1]: < 1 nM
IC50 [2]: 1820 nM
IC50 [3]: 29 nM
IC50 [4]: < 1 nM
IC50 [5]: 0.08 nM

COC(=O)N1CCC(n2ncc3c(N4CC5CCC(C4)O5)nc(-c4ccc(NC(=O)Nc5ccc(CCO)cc5)cc4)nc32)CC1 [Example 165, methyl 4-{6-[4-({[4-(2-hydroxyethyl)phenyl]carbamoyl}amino)phenyl]-4-(8-oxa-3-azabicyclo[3.2.1]oct-3-yl)-1H-pyrazolo[3,4-d]pyrimidin-1-yl}piperidine-1-carboxylate]
IC50 [1]: < 1 nM
IC50 [2]: 2490 nM
IC50 [3]: 54 nM
IC50 [4]: < 1 nM
IC50 [5]: 0.095 nM

COC(=O)N1CCC(n2ncc3c(N4CC5CCC(C4)O5)nc(-c4ccc(NC(=O)Nc5ccc(N6CCN(C)CC6)cc5)cc4)nc32)CC1 [Example 166, methyl 4-{6-[4-({[4-(4-methylpiperazin-1-yl)phenyl]carbamoyl}amino)phenyl]-4-(8-oxa-3-azabicyclo[3.2.1]oct-3-yl)-1H-pyrazolo[3,4-d]pyrimidin-1-yl}piperidine-1-carboxylate]
IC50 [1]: < 1 nM
IC50 [2]: 867 nM
IC50 [3]: 117 nM
IC50 [4]: 2 nM
IC50 [5]: 0.48 nM

COC(=O)N1CCC(n2ncc3c(N4CC5CCC(C4)O5)nc(-c4ccc(NC(=O)Nc5ccc(N6CCN(C)CC6)nc5)cc4)nc32)CC1 [Example 167, methyl 4-{6-[4-({[6-(4-methylpiperazin-1-yl)pyridin-3-yl]carbamoyl}amino)phenyl]-4-(8-oxa-3-azabicyclo[3.2.1]oct-3-yl)-1H-pyrazolo[3,4-d]pyrimidin-1-yl}piperidine-1-carboxylate]
IC50 [1]: < 1 nM
IC50 [2]: 1220 nM
IC50 [3]: 234 nM
IC50 [4]: 4 nM
IC50 [5]: 0.425 nM

COC(=O)N1CCC(n2ncc3c(N4CC5CCC(C4)O5)nc(-c4ccc(NC(=O)NCCN)cc4)nc32)CC1 [Example 168, methyl 4-[6-(4-{[(2-aminoethyl)carbamoyl]amino}phenyl)-4-(8-oxa-3-azabicyclo[3.2.1]oct-3-yl)-1H-pyrazolo[3,4-d]pyrimidin-1-yl]piperidine-1-carboxylate]
IC50 [1]: 1500 nM
IC50 [2]: 3220 nM
IC50 [3]: 218 nM
IC50 [4]: 9000 nM
IC50 [5]: 3.15 nM

COC(=O)N1CCC(n2ncc3c(N4CC5CCC(C4)O5)nc(-c4ccc(NC(=O)NCCN(C)C)cc4)nc32)CC1 [Example 169, methyl 4-{6-[4-({[2-(dimethylamino)ethyl]carbamoyl}amino)phenyl]-4-(8-oxa-3-azabicyclo[3.2.1]oct-3-yl)-1H-pyrazolo[3,4-d]pyrimidin-1-yl}piperidine-1-carboxylate]
IC50 [1]: 500 nM
IC50 [2]: 5450 nM
IC50 [3]: 422 nM
IC50 [4]: 2200 nM
IC50 [5]: 40.5 nM

COC(=O)N1CCC(n2ncc3c(N4CC5CCC(C4)O5)nc(-c4ccc(NC(=O)NCCN5CCN(C)CC5)cc4)nc32)CC1 [Example 170, methyl 4-{6-[4-({[2-(4-methylpiperazin-1-yl)ethyl]carbamoyl}amino)phenyl]-4-(8-oxa-3-azabicyclo[3.2.1]oct-3-yl)-1H-pyrazolo[3,4-d]pyrimidin-1-yl}piperidine-1-carboxylate]
IC50 [1]: 1300 nM
IC50 [2]: 4420 nM
IC50 [3]: 705 nM
IC50 [4]: 6000 nM
IC50 [5]: 51 nM

COC(=O)N1CCC(n2ncc3c(N4CC5CCC(C4)O5)nc(-c4ccc(NC(=O)Nc5cccc(CO)c5)cc4)nc32)CC1 [Example 171, methyl 4-{6-[4-({[3-(hydroxymethyl)phenyl]carbamoyl}amino)phenyl]-4-(8-oxa-3-azabicyclo[3.2.1]oct-3-yl)-1H-pyrazolo[3,4-d]pyrimidin-1-yl}piperidine-1-carboxylate]
IC50 [1]: 5 nM
IC50 [2]: 1830 nM
IC50 [3]: 54 nM
IC50 [4]: 8 nM
IC50 [5]: 0.215 nM

COC(=O)N1CCC(n2ncc3c(N4CC5CCC(C4)O5)nc(-c4ccc(NC(=O)Nc5ccccc5CO)cc4)nc32)CC1 [Example 172, methyl 4-{6-[4-({[2-(hydroxymethyl)phenyl]carbamoyl}amino)phenyl]-4-(8-oxa-3-azabicyclo[3.2.1]oct-3-yl)-1H-pyrazolo[3,4-d]pyrimidin-1-yl}piperidine-1-carboxylate]
IC50 [1]: 200 nM
IC50 [2]: 1730 nM
IC50 [3]: 1370 nM
IC50 [4]: 1300 nM
IC50 [5]: 3.05 nM

CCn1ncc2c(N3CC4CCC(C3)O4)nc(-c3ccc(NC(=O)NCCN)cc3)nc21 [Example 173, 1-(2-aminoethyl)-3-{4-[1-ethyl-4-(8-oxa-3-azabicyclo[3.2.1]oct-3-yl)-1H-pyrazolo[3,4-d]pyrimidin-6-yl]phenyl}urea]
IC50 [1]: 270 nM
IC50 [2]: 3130 nM
IC50 [3]: 270 nM
IC50 [4]: 650 nM
IC50 [5]: 2.25 nM
